The results in this text go back to a melting point compilation (Tetko et al.; mined from patent text by program, amines drawn as free bases though some values may be those of a salt).

Regarding `CCCCCCCCCCOc1ccc(C(=O)Nc2cc(CCC(=O)CC3CCCCCC3)ccc2C(C)(C)C)cc1`, the melting point (as a rule, the temperature, or range, at which the solid turns liquid) lay in the range of 98 to 99 °C. Consider `CO/N=C1\CCCC[C@@H]1NC(=O)c1cnc(O[C@@H](C)C(F)(F)F)c(-c2ccc(Cl)cc2)n1`, for which the melting point lay in the range of 120 to 123 °C. The result for `COc1cc(C(=O)CS(=O)(=O)c2ccccc2)ccc1Cc1cn(C)c2ccc(NC(=O)NC3CCCC3)cc12` reads 203 to 206 °C; that for `NS(=O)(=O)c1cc(C(=O)OCC(=O)N2CCC(CCO[N+](=O)[O-])CC2)c(NCc2ccco2)cc1Cl`, 170 °C; that for `CC1(C)OC(=O)Nc2ccc(-c3ccccc3F)cc21`, 164 to 165 °C. The result for `CC(C)n1nc(O)nc1N1CCCC1` reads 123 to 125 °C. On to `CCC1(CC)C(=O)N(C(C)(C)C)CC(C)(C)N1OC(C(=O)O)c1ccccc1` (configuration not stated), for which the melting point is 125 to 133 °C.

`Fc1ccc(-n2c(CCl)csc2=S)c(F)c1F` returned a melting point of 127 to 130 °C. The result for `CCN(CC)c1ccc(-c2cc3ccccc3o2)cc1` reads 117 to 119 °C.

For `COC(=O)NCC1Cc2c(Cl)cc3c(c2O1)CCC3` (configuration not stated), the melting point is 139 to 141 °C. Compound `O=C1CC(c2csc(-n3ccnc3)n2)=Nc2ccc(-c3ccccc3F)cc2N1` gave a melting point of 194 to 197 °C. `COc1ccc(Br)c(O)c1` yielded a melting point of 40 to 42 °C. The result for `COc1cc2c(cc1Nc1ncc(Cl)c(NC3(C(=O)NCC#N)CC3)n1)CCN(CC(=O)N(C)C)CC2` reads 120 to 128 °C; that for `COCc1c(C(=O)OC)c2cc(O)ccc2n1C`, 168 to 170 °C. Regarding `O=C(O)c1cc(Oc2ccc(Cl)cc2Cl)c(O)cc1Cl`, the melting point fell in the range of 192 to 196 °C. Consider `CCCCNc1cccc2c1C(=O)c1ccccc1C2=O`, for which the melting point is 78 to 79 °C. The compound `COc1ccc(-c2ccc(N3CCCN(c4ccc(-c5ccc(OC)cc5)cn4)CC3)nc2)cc1` displayed a melting point of 254 to 256 °C.

`O=C(O)c1cccc(-c2cccc3cc(Cc4cccc(F)c4)oc23)c1` yielded a melting point of 135 to 136 °C.

As to `CCN1C(=O)c2cccnc2N(CC)c2ncccc21`, the melting point fell in the range of 102 to 103 °C. Compound `Cc1ccc2[nH]c3c(c2c1)C(=O)CCC3` showed a melting point above 255 °C.

`O=c1cc(-c2ccc(OCCCCl)cc2)cn[nH]1` came in with a melting point of 197 to 199 °C. The result for `CCOc1ccc(Nc2ccc(Nc3ccc(OCC)cc3)c3c2C(=O)c2c(Nc4ccc(OCC)cc4)ccc(Nc4ccc(OCC)cc4)c2C3=O)cc1` reads 173 to 175 °C; that for `NC(=S)N1CCN(c2ccccc2)CC1`, 178 to 179 °C; that for `COc1cncnc1N1CCN(CCCc2c[nH]c3ccc(Nc4cc(=O)c4=O)cc23)CC1C` (configuration not stated), 191 to 193 °C.

`COc1ccc(C=CC(=O)N2CCN(C(=O)C=Cc3ccc(OC)c(C(F)F)c3)CC2)cc1C(F)F` displayed a melting point of 259 to 261 °C. Take `CCCOc1cc([N+](=O)[O-])cc2cc(C(=O)OC)oc12`: the melting point came to 157 °C. For the compound `COc1ccc2ccc(C(=O)CNC(=O)Cc3ccccc3)cc2c1`, the melting point lay within 148 to 150 °C. The result for `CCOC(=O)c1cc2c(C(F)(F)F)coc2nc1C(=O)OCC` reads 50 to 55 °C; that for `COc1cnc(N2CCN(c3ccc([N+](=O)[O-])cc3)CC2)nc1`, 212 °C.

As to `CNC(=O)N(O)C(C)c1ccc(OC)cc1` (configuration not stated), the melting point was in the range of 102 to 104 °C. Compound `O=C(NCC1CCC1)NCC1CCC1` returned a melting point of 153 to 155 °C. The result for `O=C(CCCN1C(=O)c2ccccc2C1=O)N1CCCC2=C1CCc1cc(Cl)ccc12` reads 182 to 183 °C; that for `CC(C)=CC(=O)N1CC(NC(=O)Nc2cccc(C(=O)O)c2)C(=O)N(CC(=O)c2ccccc2C)c2cc(C)ccc21` (configuration not stated), 240 to 242 °C.

Take `COc1ccc(Cc2nnc(N[C@H]3CC[C@H](C(C)C)CC3)c3ccccc23)cn1`: the melting point lay in the range of 124 to 125 °C.

For the compound `CCNC(=O)c1ccc(-c2ccc3c(c2)C(Nc2ccc(Cl)cc2)CC(C)N3C(C)=O)cc1` (configuration not stated), the melting point was found to be 134 °C.

The compound `NCCCCCCCNC(=O)COCC(=O)NC1CCC2C3Cc4ccccc4C2(CCN3)C1` (configuration not stated) gave a melting point of 83 to 85 °C.

For `O=C1OC2(CC(c3cccc(-c4ccccc4)c3)=NO2)c2ccccc21` (configuration not stated), the melting point lay in the range of 152 to 159 °C. `O=C1CCCCN1C1=CC(CF)(CF)Oc2ccc(C(F)(F)C(F)(F)F)cc21` displayed a melting point of 149 to 150 °C. Consider `CCC(C)NC1=NS(=O)(=O)c2cc(C(F)(F)F)ccc2N1` (configuration not stated), for which the melting point was in the range of 234 to 236 °C. `CC1(C)CC(=O)c2cc3c(cc2O1)OCO3`: the melting point was 61 to 62 °C. As for `O=Cc1nn(-c2ccc([N+](=O)[O-])cc2)c2c1CCCC2`, the melting point was 147 to 148 °C.

Regarding `CCCCNc1cc(C(=O)O)cc(S(N)(=O)=O)c1-c1ccccc1`, the melting point was 134 to 136 °C.

For the compound `Fc1ccc(C(F)(F)F)cc1Nc1nc2ccccc2o1`, the melting point was in the range of 164 to 165 °C. `CC(C)CCN1C(=O)C(NC(=O)Oc2ccccc2)C(=O)N(c2ccccc2)c2ccccc21` (configuration not stated): the melting point is 70 °C.

As for `CCN1CCCC1CNC(=O)c1ccc2c(c1)C(=O)C1(CC1)O2` (configuration not stated), the melting point is 161 to 166 °C. `CCOC(=O)/C(=C/c1ccc(OC)c(OC2CCCC2)c1)c1ccncc1`: the melting point was 109 to 110 °C. In turn, `Oc1ccc(F)cc1-c1cc(-c2ccc(-c3ccccc3)cc2)cc(-c2ccc3ccccc3c2)n1` came in with a melting point of 187 to 188 °C.

As to `O=c1[nH]c(=O)n(C2CC(F)C(CO)O2)cc1CO` (configuration not stated), the melting point was determined as 184 °C.

Regarding `CNc1nc(CC(=O)Nc2cccc(C(F)(F)F)c2)cs1`, the melting point was 153 to 155 °C. `c1cc(-c2nc(-c3cnccn3)n[nH]2)ccn1` yielded a melting point of 251 to 252 °C. Take `CCCc1nn(-c2ccc(C(F)(F)F)cn2)cc1CCCOc1ccc(C(C)(C)C(=O)O)cc1`: the melting point was 84 to 85 °C. In turn, `CCCOc1ccc(CN/C=C2\C(=O)NC(=O)c3ccc(-c4ccc(F)cc4)cc32)cc1O` showed a melting point of 194 to 195 °C. `COc1ccc(C(=O)Cc2c(Cl)cncc2Cl)c2c1OCC2C` (configuration not stated) registered a melting point of 99 to 104 °C. `COc1ccc(CCc2ccc(C(=O)O)cc2)cc1OC(C)CCCc1ccccc1` (configuration not stated) gave a melting point of 112 °C. The compound `CC1(C)CCC(C)(C)c2cc(-c3cc(-c4ccc(C(=O)O)cc4)ccc3OCCCCCCCCCO)ccc21` showed a melting point of 147 to 150 °C. The result for `CC1Cc2cc3c(cc2C(c2ccc([N+](=O)[O-])cc2)=NN1C1=NCCS1)OCO3` (configuration not stated) reads 185 to 187 °C; that for `CN1C[C@H]2c3ccccc3[C@H](c3ccccc3)CN2C(=O)C1=O` (relative stereo), 193 to 194 °C; that for `CCCOc1c(OC)cc([N+](=O)[O-])c2ncccc12`, 100 to 104 °C. For `COc1cc(OCCN2CCOCC2)c(C=O)cc1-c1cccs1`, the melting point lay in the range of 130 to 131 °C.

`CCOC(=O)C(CC)C(=O)Nc1ccc(Br)cc1C` (configuration not stated) had a melting point of 98 to 100 °C. As for `O=C(O)CCCc1cc2nc(Cl)ccc2n1S(=O)(=O)c1c(F)cccc1F`, the melting point was 192 to 195 °C.

`CC(=O)C1CCC2C3CCC4=CC(=O)C=CC4(C)C3C(O)CC12CO[N+](=O)[O-]` (configuration not stated) returned a melting point of 162 to 164 °C.

In turn, `CN(C)CC1CCc2cc(OCc3ccc([N+](=O)[O-])cc3)ccc2C1` (configuration not stated) came in with a melting point of 83 to 89 °C. Consider `CCc1ccc2cc(C)c(-n3cncn3)nc2c1`, for which the melting point was in the range of 72 to 73 °C. `CCNC(=O)c1ccccc1Nc1nc(Nc2c(OC)ccc3c2CC(=O)N(CC)CC3)ncc1Cl` came in with a melting point of 117 to 141 °C. With `Cn1nnnc1CC(O)(Cn1cncn1)c1ccc(Cl)cc1Cl` (configuration not stated), the melting point was in the range of 182 to 184 °C. `Cn1nc(-c2cnc3[nH]cc(C(=O)NC4CCOCC4)c3n2)c2ccc(Cl)cc21` registered a melting point of 355 to 358 °C. Compound `CCCCCCCCCCCCCCCCCCOc1cc(N)cc([N+](=O)[O-])c1` showed a melting point of 106 to 108 °C.

On to `Cc1ccc2nc(NC(=O)c3ccc(C(C)(C)C)cc3)cn2c1`, for which the melting point is 259 to 260 °C.

`CCCCNC(=O)c1cccc(S(=O)(=O)NC(=O)c2ccc(C(=O)NCC(=O)OC)nc2)c1` came in with a melting point of 198 to 200 °C.

As for `CN(C)c1ccc(-c2n[nH]c(=O)c3cc(N(C)C)ccc23)cc1`, the melting point was in the range of 230 to 233 °C.

Compound `Cc1cc2c(cc1C)CCC(C(=O)O)=C2` displayed a melting point of 222 to 223 °C. Take `COC(=O)c1cccc(C2=NC(C)(C)Cc3cc(OC)c4c(c32)CC(C)(C)O4)c1`: the melting point lay in the range of 137 to 138 °C. As for `CC(=O)Nc1ccc(-c2nc3n(c2-c2ccc(NC(C)=O)cc2)CCS3)cc1`, the melting point lay within 285 to 290 °C. In the case of `CCN(CC)C(=O)n1cnc(Sc2cc(F)c(C#N)cc2F)n1`, the melting point worked out at 80 °C. In the case of `COc1ccc2cc([C@H](C)C(=O)OC/C=C\CO)ccc2c1`, the melting point was 69 to 71 °C. `CCOC(=O)c1nc(-c2ccc(C(C)(C)C)cc2)[nH]c1-c1ccc([N+](=O)[O-])cc1` displayed a melting point of 190 to 191 °C.

`CC1(C)OC(=O)N(Cc2ccccc2[N+](=O)[O-])C1O` (configuration not stated) showed a melting point of 119 to 120 °C.

`CC1(C)C=C(C#N)c2cc3nonc3cc2O1` had a melting point of 136 to 138 °C. The compound `Clc1ccnc2[nH]c(CCc3ccccc3)cc12` had a melting point of 159 to 160 °C.

With `O=C(O)c1cc(OCc2ccccc2)cc(C(F)(F)F)c1`, the melting point was 143 to 145 °C. The compound `Cc1ccc(CN2CCN([C@@H](CNS(=O)(=O)c3ccc(OCc4cc(C)nc5ccccc45)cc3)C(=O)NO)CC2)cc1` yielded a melting point of 170 °C.

As to `O=c1[nH]c2ccccc2c2c(CCC3CCNCC3)n(-c3ccccc3)nc12`, the melting point was in the range of 250 to 252 °C.

As to `O=[N+]([O-])c1oc2ccc(NCc3ccccc3)cc2c1-c1ccccc1`, the melting point fell in the range of 118 to 120 °C.

`CCOC(=O)c1ccc(CN2CCN(C(=O)OC(C)(C)C)C(C(N)=O)C2)c(C(F)(F)F)c1` (configuration not stated) had a melting point of 124 to 125 °C. `O=C1COc2cc(F)c(N3C(=O)C4=C(CCCC4)C3=O)cc2N1Cc1ccccn1` displayed a melting point of 188 to 190 °C.

`COc1ccc(C(=O)C2CCC(CCO)CC2)cc1O` (configuration not stated) had a melting point of 107 to 109 °C.
